From ChEMBL document CHEMBL1201862, “PubChem BioAssay data set” (2004)
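Following 48 hours of exposure in 96-well plates, responses at five concentrations were used to interpolate endpoints linearly. The concentration for 50% growth inhibition is given as GI50.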 Activity calls are given as the source filed them. No stated cut-off is given here; in the data, active = GI50 up to about 1.1 µM and inactive = higher.

Experiments:
Experiment in all cases: inhibition of tumour cell growth, NCI panel, 48 h
SN12C = tested on: SN12C
SR = tested on: SR
SK-OV-3 = tested on: SK-OV-3
K562 = tested on: K562
NCI-H460 = tested on: NCI-H460
SNB-78 = tested on: SNB-78
OVCAR-8 = tested on: OVCAR-8
DMS-273 = tested on: DMS-273
Malme-3M = tested on: Malme-3M
UACC-257 = tested on: UACC-257
LXFL 529 = tested on: LXFL 529
NCI-H226 = tested on: NCI-H226
U-251 = tested on: U-251
SF-268 = tested on: SF-268
NCI-H23 = tested on: NCI-H23
786-0 = tested on: 786-0
M14 = tested on: M14
SW-620 = tested on: SW-620
UO-31 = tested on: UO-31
A498 = tested on: A498
OVCAR-3 = tested on: OVCAR-3
HT-29 = tested on: HT-29
A549 = tested on: A549
M19-MEL = tested on: M19-MEL
HCC 2998 = tested on: HCC 2998
RXF 393 = tested on: RXF 393
HOP-62 = tested on: HOP-62
HOP-92 = tested on: HOP-92
EKVX = tested on: EKVX
IGROV-1 = tested on: IGROV-1
KM-20L2 = tested on: KM-20L2
RXF 631 = tested on: RXF 631
HCT-15 = tested on: HCT-15
COLO 205 = tested on: COLO 205
KM12 = tested on: KM12
SK-MEL-5 = tested on: SK-MEL-5
OVCAR-5 = tested on: OVCAR-5
HCT-116 = tested on: HCT-116
OVCAR-4 = tested on: OVCAR-4
XF498 = tested on: XF498
DLD-1 = tested on: DLD-1
CCRF-CEM = tested on: CCRF-CEM
LOX IMVI = tested on: LOX IMVI
SF-539 = tested on: SF-539
SNB-75 = tested on: SNB-75
RPMI-8226 = tested on: RPMI-8226
DMS-114 = tested on: DMS-114
HL-60 = tested on: HL-60
NCI-H522 = tested on: NCI-H522
SF-295 = tested on: SF-295
SNB-19 = tested on: SNB-19
UACC-62 = tested on: UACC-62
CAKI-1 = tested on: CAKI-1
MOLT-4 = tested on: MOLT-4
TK-10 = tested on: TK-10
SK-MEL-28 = tested on: SK-MEL-28
SK-MEL-2 = tested on: SK-MEL-2
ACHN = tested on: ACHN

With `CCOc1cc[n+]([C-](C#N)C#N)cc1` the GI50 (SN12C) was > 100 µM (inactive), the GI50 (SR) was > 100 µM (inactive) and the GI50 (SK-OV-3) was > 100 µM (inactive). The GI50 (K562) was > 100 µM (inactive), the GI50 (NCI-H460) was > 100 µM (inactive) and the GI50 (SNB-78) was > 100 µM (inactive). For the same compound, the GI50 (OVCAR-8) was > 100 µM (inactive), the GI50 (DMS-273) was > 100 µM (inactive) and the GI50 (Malme-3M) was > 100 µM (inactive). The GI50 (UACC-257) was > 100 µM (inactive), the GI50 (LXFL 529) was > 100 µM (inactive) and the GI50 (NCI-H226) was > 100 µM (inactive). The GI50 (U-251) was > 100 µM (inactive), the GI50 (SF-268) was > 100 µM (inactive) and the GI50 (NCI-H23) was > 100 µM (inactive). For the same compound, the GI50 (786-0) was > 100 µM (inactive), the GI50 (M14) was > 100 µM (inactive) and the GI50 (SW-620) was > 100 µM (inactive). The GI50 (UO-31) was > 100 µM (inactive), the GI50 (A498) was > 100 µM (inactive) and the GI50 (OVCAR-3) was > 100 µM (inactive). The GI50 (HT-29) was > 100 µM (inactive), the GI50 (A549) was > 100 µM (inactive) and the GI50 (M19-MEL) was > 100 µM (inactive). The GI50 (HCC 2998) was > 100 µM (inactive), the GI50 (RXF 393) was > 100 µM (inactive) and the GI50 (HOP-62) was > 100 µM (inactive). For the same compound, the GI50 (HOP-92) was > 100 µM (inactive), the GI50 (EKVX) was > 100 µM (inactive) and the GI50 (IGROV-1) was > 100 µM (inactive). The GI50 (KM-20L2) was > 100 µM (inactive), the GI50 (RXF 631) was > 100 µM (inactive) and the GI50 (HCT-15) was > 100 µM. For the same compound, the GI50 (COLO 205) was > 100 µM (inactive), the GI50 (KM12) was > 100 µM (inactive) and the GI50 (SK-MEL-5) was > 100 µM (inactive). For the same compound, the GI50 (OVCAR-5) was > 100 µM (inactive), the GI50 (HCT-116) was > 100 µM (inactive) and the GI50 (OVCAR-4) was > 100 µM (inactive). For the same compound, the GI50 (XF498) was > 100 µM (inactive), the GI50 (DLD-1) was > 100 µM (inactive) and the GI50 (CCRF-CEM) was > 100 µM (inactive). For the same compound, the GI50 (LOX IMVI) was > 100 µM (inactive), the GI50 (SF-539) was > 100 µM (inactive) and the GI50 (SNB-75) was > 100 µM (inactive). For the same compound, the GI50 (RPMI-8226) was > 100 µM (inactive), the GI50 (DMS-114) was > 100 µM (inactive) and the GI50 (HL-60) was > 100 µM (inactive). The GI50 (NCI-H522) was > 100 µM (inactive), the GI50 (SF-295) was > 100 µM (inactive) and the GI50 (SNB-19) was > 100 µM (inactive). For the same compound, the GI50 (UACC-62) was > 100 µM (inactive), the GI50 (CAKI-1) was > 100 µM (inactive) and the GI50 (MOLT-4) was > 100 µM (inactive). For the same compound, the GI50 (TK-10) was > 100 µM (inactive).

`NNC(=O)/C(=C/c1ccc(Cl)c(Cl)c1)NC(=O)c1ccccc1` was tested, and the GI50 (SN12C) was > 100 µM (inactive), the GI50 (NCI-H460) was > 100 µM (inactive) and the GI50 (SNB-78) was > 100 µM (inactive). For the same compound, the GI50 (OVCAR-8) was > 100 µM (inactive), the GI50 (Malme-3M) was > 100 µM (inactive) and the GI50 (UACC-257) was > 100 µM (inactive). The GI50 (LXFL 529) was > 100 µM (inactive), the GI50 (NCI-H226) was > 100 µM (inactive) and the GI50 (U-251) was > 100 µM (inactive). For the same compound, the GI50 (SF-268) was > 100 µM (inactive), the GI50 (NCI-H23) was > 100 µM (inactive) and the GI50 (786-0) was > 100 µM (inactive). For the same compound, the GI50 (M14) was > 100 µM (inactive), the GI50 (SW-620) was > 100 µM (inactive) and the GI50 (UO-31) was > 100 µM (inactive). For the same compound, the GI50 (SK-MEL-28) was > 100 µM (inactive), the GI50 (OVCAR-3) was > 100 µM (inactive) and the GI50 (HT-29) was > 100 µM (inactive). For the same compound, the GI50 (A549) was > 100 µM (inactive), the GI50 (M19-MEL) was > 100 µM (inactive) and the GI50 (HCC 2998) was > 100 µM (inactive). For the same compound, the GI50 (RXF 393) was > 100 µM (inactive), the GI50 (HOP-62) was > 100 µM (inactive) and the GI50 (SK-MEL-2) was > 100 µM (inactive). For the same compound, the GI50 (HOP-92) was 40.5 µM (inactive), the GI50 (EKVX) was > 100 µM (inactive) and the GI50 (IGROV-1) was > 100 µM (inactive). For the same compound, the GI50 (KM-20L2) was > 100 µM (inactive), the GI50 (RXF 631) was > 100 µM (inactive) and the GI50 (COLO 205) was > 100 µM (inactive). The GI50 (ACHN) was > 100 µM (inactive), the GI50 (KM12) was > 100 µM (inactive) and the GI50 (SK-MEL-5) was > 100 µM (inactive). The GI50 (OVCAR-5) was > 100 µM (inactive), the GI50 (HCT-116) was > 100 µM (inactive) and the GI50 (OVCAR-4) was 76 µM (inactive). For the same compound, the GI50 (XF498) was > 100 µM (inactive), the GI50 (DLD-1) was > 100 µM (inactive) and the GI50 (CCRF-CEM) was 92.5 µM (inactive). The GI50 (LOX IMVI) was > 100 µM (inactive), the GI50 (SNB-75) was > 100 µM (inactive) and the GI50 (RPMI-8226) was 38.5 µM (inactive). For the same compound, the GI50 (DMS-114) was 61.8 µM (inactive), the GI50 (HL-60) was > 100 µM (inactive) and the GI50 (SF-295) was > 100 µM (inactive). For the same compound, the GI50 (SNB-19) was > 100 µM (inactive), the GI50 (UACC-62) was > 100 µM (inactive) and the GI50 (MOLT-4) was 80.5 µM (inactive). The GI50 (TK-10) was > 100 µM (inactive).
